Consider two molecules from patent publication US7879792B2, “Synthetic peptide inhibitors of thrombin and thrombin activation of protease activated receptors 1 and 4” (The Regents of the University of Michigan, priority 2005, dated 2011).

Experiment [1] has as its target T1, recombinant extracellular domain of human PAR1 (rPAR1EC) (Homo sapiens, UniProt P25116).
T1 construct: A portion of the extracellular domain of human PAR1 (Ala^26-Ser^99) (rPAR1EC) was expressed in Escherichia coli; KSI fusion protein (cleaved yes); His tag (cleaved yes); made in house; host or cells: E. coli BL21(DE3), pET31b
T1 sequence (P25116 26-99): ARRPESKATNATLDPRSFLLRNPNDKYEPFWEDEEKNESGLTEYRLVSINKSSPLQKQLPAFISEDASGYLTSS
As to the kind of experiment: inhibition of RPPGFK-biotin binding to rPAR1EC. Particulars: 15 μM RPPGFK-biotin.

In experiment [2] the target is T2, recombinant extracellular domain of human PAR4 (rPAR4EC) (Homo sapiens, UniProt Q96RI0).
T2 construct: starting with Gly^18, the first amino acid after the signal peptide is removed, and finishing with Arg^78; KSI fusion protein (N, cleaved yes); His-tag (N, cleaved yes); made in house; host or cells: E. coli 'BLD (DE3)' cells, pET31b; cDNA from HEL cell mRNA
T2 sequence (Q96RI0 18-78): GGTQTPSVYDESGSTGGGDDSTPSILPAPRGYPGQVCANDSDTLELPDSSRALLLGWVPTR
The experiment can be described thus: inhibition of RPPGFK-biotin binding to rPAR4EC. The conditions noted are these: 15 μM RPPGFK-biotin. On the procedure:
Investigations were performed to determine if the compounds in the present invention interact with the exodomain of human PAR4. The extracellular fragment of human PAR4 has been expressed in bacteria. Human erythroleukemia (HEL) cells were used as a source for PAR4 mRNA. The level of PAR4 mRNA was substantially higher in HEL cells than washed human platelets. […] These primers give a 204 basepair fragment which codes for a 61 amino acid hPAR4 protein starting with Gly^18, the first amino acid after the signal peptide is removed, and finishing with Arg^78, the last amino acid of the extracellular fragment (Xu et al. Proc. Natl. Acad. Sci. 95, 6642-6646 (1998)). The pET31b-PAR4 vector after cloning was used to transform BLD (DE3) cells to express the recombinant protein. After IPTG stimulation, the recombinant protein was isolated from the bacterial lysate on a nickel affinity column followed by treatment with CNBr to remove the KSI fusion protein and His-tag on its amino terminal end. The isolated recombinant extracellular domain of PAR4 (rPAREC) is about 9 kDa on 16.5% Tris-Tricine SDS-PAGE. The recombinant protein is recognized as being human PAR4 by detection with an antibody prepared from a peptide (S^41[…]^52) (SEQ ID NO:9) from human PAR4EC. Recombinant PAR4EC was linked to microtiter plate cuvette wells. Goat polyclonal antibody to human PAR1, PAR3, or PAR4 was incubated with the coated microtiter plate cuvette wells and antibody binding was detected. Only antibody to PAR4 detected rPAR4EC linked to the microtiter plate wells. […] These studies indicate that peptides of the present invention also physically interact with human PAR4.

In experiment [3] the test system is γ-thrombin-induced platelet aggregation. As to the kind of experiment: γ-thrombin-induced platelet aggregation in human platelet-rich plasma. It counts as cell-based. The conditions noted are these: for Concentration of Peptide [mM] That Gives 100% Inhibition: 40 nM human gamma thrombin, human platelet-rich plasma. On the procedure:
Fresh whole blood was collected and mixed with 0.013 M sodium citrate and platelet-rich plasma was prepared according to the method of Meloni et al., J. Biol. Chem. 266, 6786 (1991). Platelet-rich plasma with a normalized platelet count between 2-2.5×10^8 platelets/ml was added to a cuvette of an aggregometer (Chronlog Corp., Havertown, Pa.), standardized using the protocol of Meloni et al., supra. Peptides to be examined were added to the cuvette and the mixture stabilized for a few moments. Once the baseline was stabilized, γ-thrombin (10-70 nM) (Haematologic Technologies, Essex Junction, Vt.) was added to determine the minimal concentration of the agonist necessary to achieve full platelet aggregation. All investigations with peptides were performed using threshold concentrations of γ-thrombin. Aggregation was allowed to proceed for 5 minutes before stopping.
Table III is a tabulation of the library of peptides prepared and their influence on γ-thrombin-induced platelet aggregation in platelet-rich plasma. […] The numbers in the column represent the minimal concentration (mM) of the peptide that blocked 100% γ-thrombin-induced platelet aggregation of platelets in human platelet-rich plasma.
Human platelet samples were stimulated with 40 nM human gamma thrombin in each experiment.

Where a SMILES comes first, the peptide text is derived from it.

Take `N=C(N)NCCC[C@@H](N)C(=O)N1[C@H](C(=O)N2CCC[C@H]2C(=O)NCC(=O)N[C@@H](Cc2ccccc2)C(N)=O)C[C@@H]2CCCC[C@@H]21` [rOicPGF, D-Arg-Oic-Pro-Gly-Phe, reference compound] (HELM PEPTIDE1{[dR].[O=C([C@@H]1C[C@@H]2CCCC[C@@H]2N1[*:1])[*:2]].P.G.F.[am]}$$$$V2.0): the “RPPGFK-biotin displaced from rPAR1 exodomain” value in experiment [1] (1000 μM (1 mM) peptide) was found to be 50%. In addition, the “RPPGFK-biotin displaced from rPAR4 exodomain” value in experiment [2] (1 μM peptide (so in the source)) is 50%. The “Concentration of Peptide [mM] That Gives 100% Inhibition” value in experiment [3] is 0.142 mM.
For `Cc1ccc(C[C@H](NC(=O)[C@@H](C)NC(=O)[C@@H]2CCCN2C(=O)[C@@H]2C[C@@H]3CCCC[C@@H]3N2C(=O)[C@H](N)CCCNC(=N)N)C(N)=O)cc1` [rOicPaF(p-Me), D-Arg-Oic-Pro-D-Ala-Phe(p-Me)] (HELM PEPTIDE1{[dR].[O=C([C@@H]1C[C@@H]2CCCC[C@@H]2N1[*:1])[*:2]].P.[dA].[Cc1ccc(C[C@H](N[*:1])C(=O)[*:2])cc1].[am]}$$$$V2.0), the results for the “RPPGFK-biotin displaced from rPAR1 exodomain” value in experiment [1] (30 μM peptide), in experiment [1] (300 μM peptide) and in experiment [1] (1000 μM (1 mM) peptide) were 23%, 52% and 69%, respectively. In addition, the “RPPGFK-biotin displaced from rPAR4 exodomain” value in experiment [2] (30 μM peptide) is 19%; in experiment [2] (300 μM peptide), 49%; in experiment [2] (1000 μM peptide), 63%. In addition, the “Concentration of Peptide [mM] That Gives 100% Inhibition” value in experiment [3] is given as 0.016 mM. For the same molecule, in experiment [3] (40 nM γ-thrombin), the “concentration that abolished γ-thrombin-induced platelet aggregation” value is recorded as “greater than or equal to 16 μM”. The γ-thrombin-induced platelet aggregation result in experiment [3] (8 μM peptide, 40 nM γ-thrombin) is “returned to normal”.
